One test has as its target T1, Human FAAH (Homo sapiens, UniProt O00519).
T1 construct: expressed in transfected cells; alternatively T84 frozen cell pellets
T1 sequence (O00519 1-579): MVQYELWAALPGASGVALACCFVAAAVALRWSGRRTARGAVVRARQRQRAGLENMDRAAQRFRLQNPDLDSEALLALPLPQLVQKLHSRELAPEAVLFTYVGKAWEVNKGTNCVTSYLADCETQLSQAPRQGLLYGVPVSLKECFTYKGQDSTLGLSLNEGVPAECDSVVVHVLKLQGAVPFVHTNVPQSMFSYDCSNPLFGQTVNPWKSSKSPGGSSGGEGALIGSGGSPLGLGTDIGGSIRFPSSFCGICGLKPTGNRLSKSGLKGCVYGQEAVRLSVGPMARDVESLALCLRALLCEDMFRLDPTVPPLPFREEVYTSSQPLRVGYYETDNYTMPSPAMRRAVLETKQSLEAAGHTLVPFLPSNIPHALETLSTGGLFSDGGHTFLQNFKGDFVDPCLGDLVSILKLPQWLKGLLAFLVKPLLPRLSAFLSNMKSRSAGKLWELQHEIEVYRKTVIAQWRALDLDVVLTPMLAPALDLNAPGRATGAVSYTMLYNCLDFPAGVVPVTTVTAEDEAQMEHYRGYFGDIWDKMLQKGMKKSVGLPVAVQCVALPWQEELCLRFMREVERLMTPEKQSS
As to the kind of experiment: Assay Method 1: FAAH assay, hydrolysis of 3H-anandamide by cell homogenate. As to conditions: T84 or transfected SK-N-MC cell homogenate, 3H-AEA 80 nM, rt 1 h, average of results obtained. Format: biochemical. How it is done: A. Transfection of Cells with Human FAAH
(§1) A 10-cm tissue culture dish with a confluent monolayer of SK-N-MC cells was split 2 days (d) prior to transfection. Using sterile technique, the media was removed and the cells were detached from the dish by the addition of trypsin. One fifth of the cells were then placed onto a new 10-cm dish. Cells were grown in a 37° C. incubator with 5% CO2 in Minimal Essential Media Eagle with 10% Fetal Bovine Serum. After 2 d, cells were approximately 80% confluent. These cells were removed from the dish with trypsin and pelleted in a clinical centrifuge. The pellet was re-suspended in 400 μL complete media and transferred to an electroporation cuvette with a 0.4 cm gap between the electrodes. Supercoiled human FAAH cDNA (1 μg) was added to the cells and mixed. The voltage for the electroporation was set at 0.25 kV, and the capacitance was set at 960 μF. After electroporation, the cells were diluted into complete media (10 mL) and plated onto four 10-cm dishes. Because of the variability in the efficiency of electroporation, four different concentrations of cells were plated. The ratios used were 1:20, 1:10, and 1:5, with the remainder of the cells being added to the fourth dish. The cells were allowed to recover for 24 h before adding the selection media (complete media with 600 μg/mL G418). After 10 d, dishes were analyzed for surviving colonies of cells. Dishes with well-isolated colonies were used. Cells from individual colonies were isolated and tested.
(§2) T84 frozen cell pellets or transfected SK-N-MC cells (contents of 1×15 cm culture dishes) were homogenized in 50 mL of FAAH assay buffer (125 mM Tris, 1 mM EDTA, 0.2% Glycerol, 0.02% Triton X-100, 0.4 mM Hepes, pH 9). The assay mixture consisted of 50 μL of the cell homogenate, 10 μL of the test compound, and 40 μL of anandamide [1-^3H-ethanolamine] (^3H-AEA, Perkin-Elmer, 10.3 Ci/mmol), which was added last, for a final tracer concentration of 80 nM. The reaction mixture was incubated at rt for 1 h. During the incubation, 96-well Multiscreen filter plates (catalog number MAFCNOB50; Millipore, Bedford, Mass., USA) were loaded with 25 μL of activated charcoal (Multiscreen column loader, catalog number MACL09625, Millipore) and washed once with 100 μL of MeOH. Also during the incubation, 96-well DYNEX MicroLite plates (catalog number NL510410) were loaded with 100 μL of MicroScint40 (catalog number 6013641, Packard Bioscience, Meriden, Conn., USA). After the 1 h incubation, 60 μL of the reaction mixture were transferred to the charcoal plates, which were then assembled on top of the DYNEX plates using
Centrifuge Alignment Frames (catalog number MACF09604, Millipore). The unbound labeled ethanolamine was centrifuged through to the bottom plate (5 min at 2000 rpm), which was preloaded with the scintillant, as described above. The plates were sealed and left at rt for 1 h before counting on a Hewlett Packard TopCount.
(§3) Results for compounds tested in these assays are summarized in Table 1, as an average of results obtained. Compounds were tested in free base, hydrochloride salt, and/or trifluoroacetic acid salt forms. Where activity is shown as greater than (>) a particular value, the value is the solubility limit of the compound in the assay medium or the highest concentration tested in the assay.

The target in another test is T2, Rat FAAH (Rattus norvegicus, UniProt P97612).
T2 construct: expressed in transfected cells
T2 sequence (P97612 1-579): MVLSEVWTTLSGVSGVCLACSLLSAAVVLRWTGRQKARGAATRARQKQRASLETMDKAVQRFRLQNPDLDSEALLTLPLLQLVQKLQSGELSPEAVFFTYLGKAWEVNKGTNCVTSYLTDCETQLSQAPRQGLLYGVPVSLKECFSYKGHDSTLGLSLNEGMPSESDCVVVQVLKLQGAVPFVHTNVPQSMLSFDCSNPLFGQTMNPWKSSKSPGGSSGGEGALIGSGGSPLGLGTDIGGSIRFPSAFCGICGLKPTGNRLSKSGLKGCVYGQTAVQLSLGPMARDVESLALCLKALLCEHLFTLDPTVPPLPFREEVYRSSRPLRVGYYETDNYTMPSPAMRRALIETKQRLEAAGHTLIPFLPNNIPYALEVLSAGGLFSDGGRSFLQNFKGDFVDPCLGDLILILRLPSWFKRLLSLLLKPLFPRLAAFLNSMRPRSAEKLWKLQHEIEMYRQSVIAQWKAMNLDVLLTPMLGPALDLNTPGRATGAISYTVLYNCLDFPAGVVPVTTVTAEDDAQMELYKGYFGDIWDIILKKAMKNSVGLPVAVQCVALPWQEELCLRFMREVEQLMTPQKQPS
Description: Assay Method 2: FAAH assay, hydrolysis of 3H-anandamide by cell homogenate. As to conditions: T84 or transfected SK-N-MC cell homogenate, 3H-AEA 80 nM, rt 1 h, average of results obtained. Type of test: biochemical. How it is done: A. Transfection of Cells with Rat FAAH
as §1, with “rat” for “human”, “[…]” for “960 μF.”
as §2, with “25” for “25 μL”, “using Centrifuge Alignment Frames (catalog number MACF09604, Millipore). The unbound labeled ethanolamine was centrifuged through to the bottom plate (5 min at 2000 rpm), which was preloaded with the scintillant, as described above. The plates were sealed and left at rt for 1 h before counting on a Hewlett Packard TopCount.” for “using”
as §3

The structures appear in SMILES notation. Bounds are passed on as bounds.

With `O=C(Nc1cccnc1)N1CCCC(Cc2cccc(Oc3ccc(Cl)cc3)c2)C1` (single isomer, unassigned; (+)) [Example 13, (+)-3-[3-(4-Chloro-phenoxy)-benzyl]-piperidine-1-carboxylic acid pyridin-3-ylamide], the IC50 – broadly, the concentration that gives 50% inhibition – against Human FAAH amounted to 19 nM; against Rat FAAH it was 31 nM.
Take `O=C(Nc1noc2ccccc12)N1CCCC(Cc2ccc(C(F)(F)F)cc2)C1` (stereo not shown) [Example 5, N-1,2-Benzisoxazol-3-yl-3-{[4-(trifluoromethyl)-phenyl]-methyl}-piperidine-1-carboxamide]: the values for the IC50 against Human FAAH and against Rat FAAH were 2000 nM and 183 nM, respectively.
On to `O=C(Nc1ccncn1)N1CCCC(Cc2ccc(F)cc2)C1` (stereo not shown) [Example 4, 3-[4(4-Fluorophenyl)methyl]-N-pyrimidin-4-ylpiperidine-1-carboxamide], for which the values for the IC50 against Human FAAH and on Rat FAAH were 10000 nM and over 10000 nM, respectively.
In the case of `O=C(Nc1ccncn1)N1CCCC(Cc2cccc(C(F)(F)F)c2)C1` (stereo not shown) [Example 3, N-Pyrimidin-4-yl-3-{[3-(trifluoromethyl)phenyl]methyl}piperidine-1-carboxamide], the IC50 at Human FAAH stood at 8000 nM; on Rat FAAH, 10000 nM.
Take `O=C(Nc1cccnc1)N1CCCC(Cc2ccc(Cl)c(Cl)c2)C1` (stereo not shown) [Example 17, 3-(3,4-Dichloro-benzyl)-piperidine-1-carboxylic acid pyridin-3-ylamide]: the IC50 against Human FAAH amounted to 48 nM; on Rat FAAH it was 180 nM.
For the compound `O=C(Nc1cccnc1)N1CCCC(Cc2cccc(OC(F)(F)F)c2)C1` (stereo not shown) [Example 18, 3-(3-Trifluoromethoxy-benzyl)-piperidine-1-carboxylic acid pyridin-3-ylamide], the values for the IC50 against Human FAAH and on Rat FAAH were 190 nM and 450 nM, respectively.
On to `O=C(Nc1cccnc1)N1CCCC(Cc2cccc(Oc3ccc(OC(F)(F)F)cc3)c2)C1` (stereo not shown) [Example 15, 3-[3-(4-Trifluoromethoxy-phenoxy)-benzyl]-piperidine-1-carboxylic acid pyridine-3-ylamide], for which the IC50 at Human FAAH amounted to 11 nM; on Rat FAAH, 17 nM.
`O=C(Nc1noc2ccccc12)N1CCCC(Cc2cccc(C(F)(F)F)c2)C1` (stereo not shown) [Example 6, N-1,2-Benzisoxazol-3-yl-3-{[3-(trifluoromethyl)-phenyl]-methyl}-piperidine-1-carboxamide]: the IC50 amounted to 645 nM on Human FAAH and 50 nM on Rat FAAH.
Regarding `O=C(Nc1cccnc1)N1CCCC(Cc2ccc(OC(F)(F)F)cc2)C1` (stereo not shown) [Example 19, 3-(4-Trifluoromethoxy-benzyl)-piperidine-1-carboxylic acid pyridin-3-ylamide], the values for the IC50 against Human FAAH and against Rat FAAH were 430 nM and 1600 nM, respectively.
As to `O=C(Nc1cccnc1)N1CCCC(Cc2ccc3c(c2)OC(F)(F)O3)C1` (stereo not shown) [Example 1, 3-(2,2-Difluoro-benzo[1,3]dioxol-5-ylmethyl)-piperidine-1-carboxylic acid pyridin-3-ylamide], the half-maximal inhibitory concentration (IC50) against Human FAAH came out at 410 nM; against Rat FAAH it was 604 nM.
On to `O=C(Nc1ccncn1)N1CCCC(Cc2ccc(C(F)(F)F)cc2)C1` (stereo not shown) [Example 2, N-Pyrimidin-4-yl-3-{[4-(trifluoromethyl)phenyl]methyl}piperidine-1-carboxamide], for which the IC50 at Human FAAH was 8000 nM; on Rat FAAH it was over 10000 nM.
For `O=C(Nc1noc2ccccc12)N1CCCC(Cc2ccc(F)cc2)C1` (stereo not shown) [Example 7, N-1,2-Benzisoxazol-3-yl-3-[(4-fluorophenyl)methyl]piperidine-1-carboxamide], in that order: 2000 nM and 152 nM.
For the compound `O=C(Nc1cccnc1)N1CCCC(Cc2cnc3ccccc3c2)C1` (stereo not shown) [Example 16, 3-Quinolin-3-ylmethyl-piperidine-1-carboxylic acid pyridin-3-ylamide], the IC50 is 1000 nM at Human FAAH and over 10000 nM at Rat FAAH.
As to `O=C(Nc1ccon1)N1CCCC(Cc2ccc(C(F)(F)F)cc2)C1` (stereo not shown) [Example 8, N-Isoxazol-3-yl-3-{[4-(trifluoromethyl)phenyl]methyl}piperidine-1-carboxamide], the 50% inhibitory concentration (IC50) is 10000 nM against Human FAAH and over 10000 nM at Rat FAAH.
